Consider 9 compounds from patent US4377594A, “Derivative of 4-(N-(substituted-benzylidene)amino-methyl cyclohexane-1-carboxylic acid” (Kureha Kagaku Kogyo Kabushiki Kaisha, priority 1980, dated 1983).

Structures can show the parent of a compound that is named as a salt. Where two headings read alike, the source gives them in different places.

Data set [1] is described as follows: acute toxicity, peroral administration. Conditions: in vivo, po; peroral, aqueous solution, female JCL-ICR mouse 5 to 6 weeks. From the text:
(§1) (3) Examination method for acute toxicity
(§2) Acute toxicity was examined by administering perorally an aqueous solution of each Specimen to female JCL-ICR mouse of 5 to 6 weeks after birth.
(§3) ^(3) Median lethal dose (LD50), that is, dose for getting 50% of
(§4) mice to death, in unit of mg per one kilogram of body weight of mouse.

Data set [2] relates to Rat's polynuclear leukocyte migration. In words: inhibitory effect on polynuclear leukocyte migration (Boyden method). In kind it is cell-based. Particulars: read-out: Inhibition rate of polynuclear leukocyte migration. The method, then:
(2) Examination method for inhibitory effect on polynuclear leukocyte migration
Rat's polynuclear leukocyte migration was examined by Boyden method (refer to Japanese J. Clin. Med., 27(9), 172 (1969)) as follows; a mixture of 10 parts by volume of culture filtrate of E. coli and one part by volume of serum was incubated at 37° C. for one hour and diluted into 5-times volume with physiological salt solution, and the mixture obtained was used as an attractant. After preincubating polynuclear leukocyte suspension with each specimen for 10 min, migration of polynuclear leukocytes was examined.
^(2) The average value of inhibition rate (%) of polynuclear leukocyt
migration at each concentration (μM) of each Specimen.

Data set [3] relates to Rabbit platelet rich plasma (PRP); platelet aggregation. In words: inhibitory effect on platelet aggregation (induced by sodium arachidonate). In kind it is cell-based. Particulars: rabbit PRP 300,000/μl; sodium arachidonate tested at 400 μM; preincubated at 37° C. for 5 min. The method, then:
(1) Examination method for inhibitory effect on platelet aggregation
Rabbit platelet rich plasma (PRP) was used for Aggregation Tests. PRP was prepared by centrifugation of blood collected from the ear vein of Rabbit and diluted into number-concentration 300,000/μl with platelet poor plasma. Platelet aggregation was induced by Sodium Arachidonate and monitored (measured) with a four channel platelet aggregation Tracer PAT-4A (Niko Bioscience Co., Japan). Aggregation Tracer tube contaning 230 μl PRP was preincubated at 37° C. for 5 min with each Specimen.
^(1) The minimum concentration (μM) of each Specimen for inhibitin
completely (100%) the platelet aggregating effect by sodium arachidonate

The test system of another data set is female JCL-ICR mouse. Nature of the data set: acute toxicity, peroral administration. Particulars: mouse, in vivo.
Excerpt: as §1, §2, §3, §4

Setting [4] is: 1 μM, average value, preincubation 10 min, rat.
Setting [5] is: 10 μM, average value, preincubation 10 min, rat.
Where [6] appears, read: 100 μM, average value, preincubation 10 min, rat.
Where [7] appears, read: 1000 μM, average value, preincubation 10 min, rat.

In general, LD50 refers to the dose expected to kill half of the subjects tested. In turn, `COc1ccccc1C=NC[C@H]1CC[C@H](C(=O)O)CC1` [IV] gave an LD50 in data set [1] of more than 3000 mg/kg. In addition, in data set [2] (setting [4]), the inhibition at 1 µM worked out at 0%. Besides, in data set [2] (setting [5]), the inhibition at 10 µM worked out at 0%. Further, the inhibition at 100 µM in data set [2] (setting [6]) is 27%. The inhibition at 1000 µM in data set [2] (setting [7]) turned out to be 94%.
`COc1ccc2c(c1)c(CC(=O)O)c(C)n2C(=O)c1ccc(Cl)cc1` [V] displayed an LD50 in data set [1] of 30 mg/kg. In data set [2] (Rattus norvegicus), the inhibition at 1 µM worked out at 0%, the inhibition at 10 µM turned out to be 0%, the inhibition at 100 µM worked out at 25% and the inhibition at 1000 µM is 79%.
Regarding `CN1CCCN(C(c2ccccc2)c2ccc(Cl)cc2)CC1` (stereo not drawn) [VI], the “Platelet aggregation ID100 (minimum concentration for inhibiting completely (100%) the platelet aggregating effect by sodium arachidonate)” value in data set [3] was more than 1000 µM. For the same compound, the LD50 in data set [1] was 350 mg/kg. Besides, in data set [2] (Rattus norvegicus), the inhibition at 1 µM stood at 15%, the inhibition at 10 µM amounted to 48%, the inhibition at 100 µM is 80% and the inhibition at 1000 µM was found to be 100%.
Take `O=C(O)[C@H]1CC[C@H](CN=Cc2ccccc2O)CC1` [I]: the “Platelet aggregation ID100 (minimum concentration for inhibiting completely (100%) the platelet aggregating effect by sodium arachidonate)” value in data set [3] is more than 1000 µM. For the same compound, the median lethal dose (LD50) in data set [1] is approximately 2000 mg/kg. In addition, in data set [2] (setting [4]), the inhibition at 1 µM was 0%. For the same compound, the inhibition at 10 µM in data set [2] (setting [5]) worked out at 0%. In addition, the inhibition at 100 µM in data set [2] (setting [6]) worked out at 39%. Besides, the inhibition at 1000 µM in data set [2] (setting [7]) came to 93%.
`O=C(O)[C@H]1CC[C@H](CN=Cc2cccc(O)c2O)CC1` [II]: the LD50 in data set [1] is more than 3000 mg/kg. Moreover, the inhibition at 1 µM in data set [2] (setting [4]) was 0%. Also, the inhibition at 10 µM in data set [2] (setting [5]) came to 25%. Also, in data set [2] (setting [6]), the inhibition at 100 µM was 66%. In data set [2] (setting [7]), the inhibition at 1000 µM worked out at 100%.
On to `COc1ccc(C=NC[C@H]2CC[C@H](C(=O)O)CC2)cc1OC` [Example 7 sodium salt, sodium salt of trans-4-[N-(3',4'-dimethoxybenzylidene)aminomethyl]cyclohexane-1-carboxylic acid], for which the “acute toxicity (in words)” value in the data set with female JCL-ICR mouse is reported as “low acute toxicity”.
As to `O=C(O)[C@H]1CC[C@H](CN=Cc2ccc(O)cc2O)CC1` [III], the “Platelet aggregation ID100 (minimum concentration for inhibiting completely (100%) the platelet aggregating effect by sodium arachidonate)” value in data set [3] is more than 1000 µM. The LD50 in data set [1] was more than 3000 mg/kg. For the same compound, in data set [2] (setting [4]), the inhibition at 1 µM was 0%. Further, in data set [2] (setting [5]), the inhibition at 10 µM came to 12%. In addition, the inhibition at 100 µM in data set [2] (setting [6]) is 42%. Moreover, the inhibition at 1000 µM in data set [2] (setting [7]) was 92%.
As to `COc1cc(C=NC[C@H]2CC[C@H](C(=O)O)CC2)cc(OC)c1OC` [Example 8 sodium salt, trans-4-[N-(3',4',5'-trimethoxybenzylidene)aminomethyl]cyclohexane-1-carboxylic acid], the “acute toxicity (in words)” value in the data set on female JCL-ICR mouse was “low acute toxicity”.
The same measure, in the same setting: then `COc1cc(C=NC[C@H]2CC[C@H](C(=O)O)CC2)ccc1O` [Example 9 sodium salt, trans-4-[N-(3'-methoxy-4'-hydroxybenzylidene)aminomethyl]cyclohexane-1-carboxylic acid], with “low acute toxicity”.
